According to patent US20250368648A1, “MULTI-CYCLIC IRAK AND FLT3 INHIBITING COMPOUNDS AND USES THEREOF” (CHILDREN'S HOSPITAL MEDICAL CENTER, priority 2022, published 2025):

Assays:
Type in all cases: biochemical
Settings in all cases: HotSpot functional assay, isolated kinase enzyme, 33P-ATP
[1] = target: T1, IRAK1 (Homo sapiens, UniProt P51617); assay: RBC HotSpot Kinase Assay, IRAK1
T1 construct: purchased RBC (Reaction Biology) HotSpot assay
From the text: (§1) This assay uses the isolated kinase enzyme. This assay is very useful for determining competition of the inhibitor for ATP and/or substrates and for measuring the kinetics of enzyme inhibition. […] Unlike kinase binding assays that measure competition for ATP, the HotSpot Kinase Assay is a functional assay that measures catalytic activity; as such it measures relative functional potency regardless of the mechanism of enzyme inhibition. This assay uses the form of the various enzymes that are easiest to express, which may not necessarily be the form of the enzyme that exist in the cell. (Sometimes the carboxy terminus has been truncated to aid in expression, or, if it is a receptor kinase, the enzyme itself is isolated from the other parts of the receptor that are involved in regulating kinase activity.)
(§2) The reagent used was as follows: Base Reaction buffer; 20 mM Hepes (pH 7.5), 10 mM MgCl2, 1 mM EGTA, 0.01% Brij35, 0.02 mg/mi BSA, 0.1 mM Na3VO4, 2 mM DTT, 1% DMSO. Required cofactors were added individually to each kinase reaction.
(§3) The reaction procedure was as follows: • 1) Substrates were prepared in freshly prepared Reaction Buffer. • 2) Any required cofactors were delivered to the substrate solution above. • 3) Kinase was delivered into the substrate solution and gently mixed. • 4) Compounds were delivered in 100% DMSO into the kinase reaction mixture by Acoustic technology (Echo550, nanoliter range), followed by incubation for 20 min at room temp. • 5) ^33P-ATP was delivered into the reaction mixture to initiate the reaction. • 6) The mixture was incubated for 2 hours at room temperature. • 7) Kinase activity was detected by P81 filter-binding method.

[2] = target: T2, IRAK4 (Homo sapiens, UniProt Q9NWZ3); assay: RBC HotSpot Kinase Assay, IRAK4; parameters: purchased RBC (Reaction Biology) HotSpot assay
T2 sequence (Q9NWZ3 1-460): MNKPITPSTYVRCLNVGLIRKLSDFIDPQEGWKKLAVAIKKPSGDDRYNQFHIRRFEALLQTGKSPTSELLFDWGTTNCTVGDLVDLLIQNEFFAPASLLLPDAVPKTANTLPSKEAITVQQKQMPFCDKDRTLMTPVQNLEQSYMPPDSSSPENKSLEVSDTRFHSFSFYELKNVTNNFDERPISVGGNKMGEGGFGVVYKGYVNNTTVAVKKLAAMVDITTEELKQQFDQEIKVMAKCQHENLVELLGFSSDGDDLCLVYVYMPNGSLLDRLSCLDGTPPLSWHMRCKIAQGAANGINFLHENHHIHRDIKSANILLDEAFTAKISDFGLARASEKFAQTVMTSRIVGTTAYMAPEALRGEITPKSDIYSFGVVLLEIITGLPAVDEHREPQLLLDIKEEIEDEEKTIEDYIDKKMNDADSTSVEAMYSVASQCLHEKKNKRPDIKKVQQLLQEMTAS
From the text: as §1, §2, §3

[3] = target: T3, FLT3 (Homo sapiens, UniProt P36888); assay: RBC HotSpot Kinase Assay, FLT3; parameters: purchased RBC (Reaction Biology) HotSpot assay
T3 sequence (P36888 27-993): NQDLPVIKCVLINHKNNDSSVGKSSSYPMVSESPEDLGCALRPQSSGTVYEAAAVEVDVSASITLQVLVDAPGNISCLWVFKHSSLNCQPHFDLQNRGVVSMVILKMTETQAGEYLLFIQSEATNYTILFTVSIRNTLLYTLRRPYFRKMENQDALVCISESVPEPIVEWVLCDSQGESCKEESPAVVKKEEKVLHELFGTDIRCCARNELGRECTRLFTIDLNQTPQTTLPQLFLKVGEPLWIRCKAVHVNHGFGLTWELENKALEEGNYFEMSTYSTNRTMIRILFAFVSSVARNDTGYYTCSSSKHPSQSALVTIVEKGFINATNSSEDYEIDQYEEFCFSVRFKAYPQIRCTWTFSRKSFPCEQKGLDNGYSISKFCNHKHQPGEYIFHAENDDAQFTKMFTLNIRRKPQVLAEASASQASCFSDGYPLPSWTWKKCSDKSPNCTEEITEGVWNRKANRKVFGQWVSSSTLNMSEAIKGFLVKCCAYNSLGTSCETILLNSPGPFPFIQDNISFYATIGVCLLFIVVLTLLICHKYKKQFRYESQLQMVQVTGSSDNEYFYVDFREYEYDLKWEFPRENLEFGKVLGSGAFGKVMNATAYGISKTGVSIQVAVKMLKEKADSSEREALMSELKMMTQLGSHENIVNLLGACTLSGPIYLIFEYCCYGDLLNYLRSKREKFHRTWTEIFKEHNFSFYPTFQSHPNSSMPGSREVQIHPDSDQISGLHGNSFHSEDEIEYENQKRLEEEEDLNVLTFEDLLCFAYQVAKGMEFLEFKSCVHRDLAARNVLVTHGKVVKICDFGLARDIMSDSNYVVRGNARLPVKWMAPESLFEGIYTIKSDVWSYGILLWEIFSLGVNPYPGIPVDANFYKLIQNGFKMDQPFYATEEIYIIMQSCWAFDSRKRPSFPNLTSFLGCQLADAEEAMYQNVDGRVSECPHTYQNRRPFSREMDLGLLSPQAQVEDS
From the text: as §1, §2, §3

T1 sequence (P51617 whole entry): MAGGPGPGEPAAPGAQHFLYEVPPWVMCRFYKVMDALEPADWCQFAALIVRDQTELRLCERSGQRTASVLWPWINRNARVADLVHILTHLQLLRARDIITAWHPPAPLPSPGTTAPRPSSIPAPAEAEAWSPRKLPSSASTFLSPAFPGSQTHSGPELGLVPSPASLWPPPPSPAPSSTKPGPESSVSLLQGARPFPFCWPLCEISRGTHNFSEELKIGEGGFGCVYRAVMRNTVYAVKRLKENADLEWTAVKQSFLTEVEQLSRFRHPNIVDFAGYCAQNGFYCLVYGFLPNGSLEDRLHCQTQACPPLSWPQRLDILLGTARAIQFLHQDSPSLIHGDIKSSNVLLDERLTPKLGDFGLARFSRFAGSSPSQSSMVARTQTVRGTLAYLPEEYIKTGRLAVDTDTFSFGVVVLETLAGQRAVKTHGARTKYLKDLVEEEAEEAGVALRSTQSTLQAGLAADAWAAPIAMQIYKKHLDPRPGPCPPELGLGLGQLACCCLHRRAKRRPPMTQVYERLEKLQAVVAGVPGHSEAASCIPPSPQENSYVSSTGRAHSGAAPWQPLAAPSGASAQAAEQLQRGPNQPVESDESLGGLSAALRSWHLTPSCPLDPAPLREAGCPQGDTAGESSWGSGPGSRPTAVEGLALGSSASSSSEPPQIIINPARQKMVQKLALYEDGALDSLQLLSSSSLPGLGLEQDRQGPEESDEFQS

| SMILES | IC50 [1] [nM] | IC50 [2] [nM] | IC50 [3] [nM] |
| --- | --- | --- | --- |
| COc1cc2ncc(-c3nc(N[C@@H]4CCCNC4)c(F)cc3F)n2nc1N1CCCS1(=O)=O [Compound 68a, (R)-2-(3-(3,5-difluoro-6-(piperidin-3-ylamino)pyridin-2-yl)-7-methoxyimidazo[1,2-b]pyridazin-6-yl)isothiazolidine 1,1-dioxide] | 19 | 7 | < 0.5 |
| COc1cc2ncc(-c3nc(N[C@@H]4CCCNC4)c(C)cc3C)n2nc1C1CC1 [Compound 62a] | > 10000 | > 10000 | 1420 |
| COc1cc2ncc(-c3nc(N[C@H]4CNC[C@@H]4F)c(F)cc3F)n2nc1C1CCCCC1 [Compound 19a, 6-(6-cyclohexyl-7-methoxyimidazo[1,2-b]pyridazin-3-yl)-3,5-difluoro-N-((3S,4S)-4-fluoropyrrolidin-3-yl)pyridin-2-amine] | 17 | 3 | < 0.5 |
| COc1cc2ncc(-c3nc(N[C@@H]4CCCNC4)c(F)cc3F)n2nc1N1CCCC1=O [Compound 23a, (R)-1-(3-(3,5-difluoro-6-(piperidin-3-ylamino)pyridin-2-yl)-7-methoxyimidazo[1,2-b]pyridazin-6-yl)pyrrolidin-2-one] | 348 | 48 | 2 |
| COc1cc2ncc(-c3nc(N[C@@H]4CCCNC4)c(F)cc3F)n2nc1C1CCCCC1 [Compound 20a, (R)-6-(6-cyclohexyl-7-methoxyimidazo[1,2-b]pyridazin-3-yl)-3,5-difluoro-N-(piperidin-3-yl)pyridin-2-amine] | 6 | 6 | < 0.5 |
| COc1cc2ncc(-c3cc(C4CC4)cc(N[C@@H]4CCCNC4)n3)n2nc1C1CC1 [Compound 58a, (R)-4-cyclopropyl-6-(6-cyclopropyl-7-methoxyimidazo[1,2-b]pyridazin-3-yl)-N-(piperidin-3-yl)pyridin-2-amine] | > 10000 | > 10000 | 5 |
| COc1ccc(-c2cnc3cc(OC)c(C4CC4)nn23)nc1N[C@@H]1CCCNC1 [Compound 34a, (R)-6-(6-cyclopropyl-7-methoxyimidazo[1,2-b]pyridazin-3-yl)-3-methoxy-N-(piperidin-3-yl)pyridin-2-amine] | > 10000 | 202 | < 0.5 |
| COc1ccc(-c2cnc3cc(OC)c(C4CC4)nn23)nc1N[C@H]1CNCC[C@@H]1F [Compound 35a, 6-(6-cyclopropyl-7-methoxyimidazo[1,2-b]pyridazin-3-yl)-N-((3S,4S)-4-fluoropiperidin-3-yl)-3-methoxypyridin-2-amine] | > 10000 | 55 | < 0.5 |
| COc1cc2ncc(-c3cc(C)cc(N[C@@H]4CCCNC4)n3)n2nc1C1CC1 [Compound 51a, (R)-6-(6-cyclopropyl-7-methoxyimidazo[1,2-b]pyridazin-3-yl)-4-methyl-N-(piperidin-3-yl)pyridin-2-amine] | > 10000 | 4920 | 2 |

Further lines, results first:

| IC50 [1] [nM] | IC50 [2] [nM] | IC50 [3] [nM] | SMILES |
| --- | --- | --- | --- |
| 5 | < 0.5 | < 0.5 | COc1cc2ncc(-c3ccc(C#N)c(N[C@H]4CNC[C@@H]4F)n3)n2nc1C1CC1 [Compound 27a, 6-(6-cyclopropyl-7-methoxyimidazo[1,2-b]pyridazin-3-yl)-2-(((3S,4S)-4-fluoropyrrolidin-3-yl)amino) nicotinonitrile] |
| 4590 | 3190 | 299 | COc1cc2ncc(-c3cc(-c4ccccc4)cc(N[C@H]4CNCC[C@@H]4F)n3)n2nc1C1CC1 [Compound 53a, 6-(6-cyclopropyl-7-methoxyimidazo[1,2-b]pyridazin-3-yl)-N-((3S,4S)-4-fluoropiperidin-3-yl)-4-phenylpyridin-2-amine] |
| > 10000 | 9000 | 2 | COc1cc2ncc(-c3cc(C4CC4)cc(N[C@H]4CNCC[C@@H]4F)n3)n2nc1C1CC1 [Compound 56a, 4-cyclopropyl-6-(6-cyclopropyl-7-methoxyimidazo[1,2-b]pyridazin-3-yl)-N-((3S,4S)-4-fluoropiperidin-3-yl)pyridin-2-amine] |
| > 10000 | 47 | < 0.5 | COc1ccc(-c2cnc3cc(OC)c(C4CC4)nn23)nc1N[C@H]1CNC[C@@H]1F [Compound 33a, 6-(6-cyclopropyl-7-methoxyimidazo[1,2-b]pyridazin-3-yl)-N-((3S,4S)-4-fluoropyrrolidin-3-yl)-3-methoxypyridin-2-amine] |
| 7 | 2 | < 0.5 | COc1cc2ncc(-c3nc(N[C@@H]4CCCNC4)c(F)cc3F)n2nc1C1CCCC1 [Compound 17a, (R)-6-(6-cyclopentyl-7-methoxyimidazo[1,2-b]pyridazin-3-yl)-3,5-difluoro-N-(piperidin-3-yl)pyridin-2-amine] |
| > 10000 | > 10000 | 277 | COc1cc2ncc(-c3cc(Oc4ccccc4)cc(N[C@H]4CNC[C@@H]4F)n3)n2nc1C1CC1 [Compound 60a, 6-(6-cyclopropyl-7-methoxyimidazo[1,2-b]pyridazin-3-yl)-N-((3S,4S)-4-fluoropyrrolidin-3-yl)-4-phenoxypyridin-2-amine] |
| 7 | 2 | < 0.5 | COc1cc2ncc(-c3nc(N[C@H]4CNC[C@@H]4F)c(F)cc3F)n2nc1C1CCCC1 [Compound 16a, 6-(6-cyclopentyl-7-methoxyimidazo[1,2-b]pyridazin-3-yl)-3,5-difluoro-N-((3S,4S)-4-fluoropyrrolidin-3-yl)pyridin-2-amine] |
| 55 | 9 | < 0.5 | COc1cc2ncc(-c3nc(N[C@H]4CNCC[C@@H]4F)c(F)cc3F)n2nc1N1CCCC1=O [Compound 22a, 1-(3-(3,5-difluoro-6-(((3S,4S)-4-fluoropiperidin-3-yl)amino)pyridin-2-yl)-7-methoxyimidazo[1,2-b]pyridazin-6-yl)pyrrolidin-2-one] |
| 5 | 21 | < 0.5 | COc1cc2ncc(-c3nc(N[C@H]4CNCC[C@@H]4F)c(F)cc3F)n2nc1C1CCCCC1 [Compound 21a, 6-(6-cyclohexyl-7-methoxyimidazo[1,2-b]pyridazin-3-yl)-3,5-difluoro-N-((3S,4S)-4-fluoropiperidin-3-yl)pyridin-2-amine] |
| 30 | 16 | < 0.5 | COc1cc2ncc(-c3nc(N[C@@H]4CCCNC4)c(F)cc3F)n2nc1C1CC2(CCC2)C1 [Compound 11a, (R)-3,5-difluoro-6-(7-methoxy-6-(spiro[3.3]heptan-2-yl)imidazo[1,2-b]pyridazin-3-yl)-N-(piperidin-3-yl)pyridin-2-amine] |
